In patent publication US20260224732A1, “BIOPOLYMER PROTECTED OLIGONUCLEOTIDES FOR DRUG DELIVERY” (THE ROYAL INSTITUTION FOR THE ADVANCEMENT OF LEARNING / …, priority 2023, published 2026):

Assays:
Epithelial cells = test: Cellular viability with CA and CA-R mixes; type: cell-based
From the text: Magnification of 10×, scale bar=100 μm, dapi in blue and factin in red.
Cellular viability. To be applicable in biological context, the toxicity of the CA and the combined CA-R mixes were verified. Epithelial cells were cultivated in media supplemented with various CA-R mixes and acidified at pH 6. Both the cellular viability and morphology was studied over a 5 day period.

[1] = cited from earlier work

## O=c1[nH]c(=O)[nH]c(=O)[nH]1 [CA, cyanuric acid]
Epithelial cells
  toxicity in vitro: low toxicity
Epithelial cells; after 5 days, pH 6, CA 20 mM alone or CA 20 mM plus the named CA-R (CAC2NH2 30 mM, CAC6NH2 12 mM)
  viability: 91±2%
[1]
  pKa: 6.9
